# Measured values taken from publication PMC6019934 (ChemMedChem, 2018).
# Read-outs that look alike come from different tables or passages of the source.
# Legend:
# [1] = test system: E. coli efflux-deficient ΔtolC mutant; assay: Minimal inhibitory concentration against growth of E. coli ΔtolC; assay type: cell-based
# [2] = biological target: MraY from C. bolteae (Enterocloster bolteae, UniProt R0BTE9); assay: Fluorescence-based in vitro MraY assay, MraY from C. bolteae; assay type: biochemical, Clostridium bolteae; details: IC50 ± SD
# [3] = test system: E. coli DH5α strain; assay: Minimal inhibitory concentration against growth of E. coli DH5α; assay type: cell-based; details: Escherichia coli, read-out: MIC (E. coli DH5α)
# [4] = biological target: T1, MraY from S. aureus (Staphylococcus aureus, UniProt Q2FZ93); assay: biochemical; assay type: biochemical
# T1 sequence (Q2FZ93 1-321): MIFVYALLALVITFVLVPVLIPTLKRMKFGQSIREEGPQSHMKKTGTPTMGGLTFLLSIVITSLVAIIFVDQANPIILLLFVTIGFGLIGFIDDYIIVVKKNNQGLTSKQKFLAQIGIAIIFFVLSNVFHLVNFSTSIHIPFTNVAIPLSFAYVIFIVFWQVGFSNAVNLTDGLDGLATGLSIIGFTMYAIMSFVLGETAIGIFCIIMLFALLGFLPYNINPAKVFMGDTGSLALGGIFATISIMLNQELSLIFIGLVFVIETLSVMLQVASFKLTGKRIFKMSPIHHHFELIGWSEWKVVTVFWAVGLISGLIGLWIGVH
# [5] = biological target: T2, MraY from Aquifex aeolicus (Aquifex aeolicus, UniProt O66465); assay type: biochemical
# T2 sequence (O66465 1-359): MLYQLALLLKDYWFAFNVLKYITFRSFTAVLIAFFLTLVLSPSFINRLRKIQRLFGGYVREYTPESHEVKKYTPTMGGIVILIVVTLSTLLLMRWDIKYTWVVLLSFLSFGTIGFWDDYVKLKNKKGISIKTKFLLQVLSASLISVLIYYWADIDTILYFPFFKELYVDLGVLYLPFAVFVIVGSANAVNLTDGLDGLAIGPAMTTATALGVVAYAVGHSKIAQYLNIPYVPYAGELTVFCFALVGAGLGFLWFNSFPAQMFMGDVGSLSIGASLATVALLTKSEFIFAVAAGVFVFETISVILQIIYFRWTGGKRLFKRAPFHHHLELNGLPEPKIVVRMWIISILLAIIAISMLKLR
# [6] = test system: S. aureus subsp. aureus (Newman strain); assay: Minimal inhibitory concentration against growth of S. aureus; assay type: cell-based
# [7] = IC50 (MraY C. bolteae crude), protein in crude membranes
# [8] = IC50 (MraY C. bolteae solubil.), protein in solubilized and purified form
# [9] = read-out: IC50 (MraY C. bolteae crude), protein in crude membranes
# [10] = read-out: IC50 (MraY C. bolteae solubil.), protein in solubilized and purified form
# [11] = read-out: IC50 (MraY S. aureus), crude membranes, IC50 ± SD
# [12] = read-out: IC50 (MraY Aquifex aeolicus), solubilized and purified form, IC50 ± SD
SMILES,MIC (E. coli ΔtolC) [1] [µg/mL],"IC50 [2, 7] [pM]","IC50 [2, 8] [pM]",MIC [3] [µg/mL],IC50 [4] [pM],fold difference in MraY inhibition between C1 6 and D1 7 ([4]; crude membranes only (S. aureus and C. bolteae MraY)),"fold less active MraY inhibitor than C1 6 (S. aureus) ([4]; crude membranes, relative to C1 6)",IC50 [5] [pM],"fold lower inhibitory activity than C1 6 (Aquifex aeolicus) ([5]; solubilized Aquifex aeolicus protein, relative to C1 6)","IC50 [2, 9] [pM]","IC50 [2, 10] [pM]","IC50 [4, 11] [pM]","IC50 [5, 12] [pM]",antibacterial activity against S. aureus in words [6]
"CO[C@H]1[C@H](O[C@H]([C@H]2O[C@@H](n3ccc(=O)[nH]c3=O)[C@H](O)[C@@H]2O)[C@H](NCCCNC(=O)[C@H](CC(C)C)NC(=O)[C@@H](NC(=O)N[C@H](C(=O)O)C(C)C)[C@@H]2CCNC(=N)N2)C(=O)O)O[C@H](CN)[C@H]1O [D1 7, muraymycin D1]",1,40000,380000 ± 110000,> 32,480 ± 130,30- to 430 fold,ca. 30 fold,99000 ± 30000,ca. 280 fold,–,–,–,–,–
"CO[C@H]1[C@H](O[C@H]([C@H]2O[C@@H](n3ccc(=O)[nH]c3=O)[C@H](O)[C@@H]2O)[C@H](NCCCNC(=O)[C@@H](NC(=O)[C@@H](NC(=O)N[C@H](C(=O)O)C(C)C)[C@@H]2CCN=C(N)N2)[C@@H](OC(=O)CCCCC(C)C)C(C)C)C(=O)O)O[C@H](CN)[C@H]1O [B6 5, muraymycin B6]",1,–,–,> 32,–,–,–,–,–,36,380 ± 30,21 ± 2,190 ± 20,–
"CO[C@H]1[C@H](O[C@H]([C@H]2O[C@@H](n3ccc(=O)[nH]c3=O)[C@H](O)[C@@H]2O)[C@H](NCCCNC(=O)[C@@H](NC(=O)[C@@H](NC(=O)N[C@H](C(=O)O)C(C)C)[C@@H]2CCNC(=N)N2)[C@@H](OC(=O)CCCCCCCCCCCCN(O)C(=N)N)C(C)C)C(=O)O)O[C@H](CN)[C@H]1O [A1 3, muraymycin A1]",2,–,–,> 32,–,–,–,–,–,17,160 ± 40,27 ± 3,110 ± 20,only congener with notable activity against S. aureus
"CC(C)C[C@H](NC(=O)[C@@H](NC(=O)N[C@H](C(=O)O)C(C)C)[C@@H]1CCNC(=N)N1)C(=O)NCCCN[C@H](C(=O)O)[C@H](O[C@@H]1O[C@H](CN)[C@@H](O)[C@H]1O)[C@H]1O[C@@H](n2ccc(=O)[nH]c2=O)[C@H](O)[C@@H]1O [D2 8, muraymycin D2]",1,25000,200000 ± 30000,> 32,390 ± 110,–,–,46000 ± 13000,–,–,–,–,–,–
"CO[C@H]1[C@H](O[C@H]([C@H]2O[C@@H](n3ccc(=O)[nH]c3=O)[C@H](O)[C@@H]2O)[C@H](NCCCNC(=O)[C@@H](NC(=O)[C@@H](NC(=O)N[C@H](C(=O)O)C(C)C)[C@@H]2CCN=C(N)N2)[C@@H](OC(=O)CCCCCCC(C)C)C(C)C)C(=O)O)O[C@H](CN)[C@H]1O [B2 4, muraymycin B2]",1,–,–,> 32,–,–,–,–,–,8.3,140 ± 10,10 ± 2,110 ± 10,–
"CO[C@H]1[C@H](O[C@H]([C@H]2O[C@@H](n3ccc(=O)[nH]c3=O)[C@H](O)[C@@H]2O)[C@H](NCCCNC(=O)[C@@H](NC(=O)[C@@H](NC(=O)N[C@H](C(=O)O)C(C)C)[C@@H]2CCNC(=N)N2)[C@@H](O)C(C)C)C(=O)O)O[C@H](CN)[C@H]1O [C1 6, muraymycin C1]",1,93,450 ± 170,> 32,16 ± 2,–,–,–,–,–,–,–,–,–
